From patent publication US20140308317A1, “Polymeric Compounds And Methods Of Making And Using The Same” (CELLCEUTIX CORPORATION, priority 2012, published 2014)
Converted amounts (≈) assume the structure as drawn.

Experiments:
[1] = test system: Enterococcus faecalis ATCC 29212; assay: Minimum Inhibitory Concentration (MIC), modified microbroth dilution; assay type: cell-based; conditions: Enterococcus faecalis, ATCC29212; E. faecalis (29212); overnight incubation (18 hours); read-out: MIC50 E. faecalis
[2] = test system: Pseudomonas aeruginosa ATCC 10145; assay: as above; assay type: cell-based; conditions: Pseudomonas aeruginosa, ATCC10145; P. aeruginosa (10145); overnight incubation (18 hours); read-out: MIC50 P. Aeruginosa
[3] = test system: Staphylococcus aureus ATCC 27660; assay: as above; assay type: cell-based; conditions: Staphylococcus aureus, ATCC27660; S. aureus (27660); overnight incubation (18 hours); read-out: MIC50 S. aureus
[4] = test system: Klebsiella pneumoniae ATCC 13883; assay: as above; assay type: cell-based; conditions: Klebsiella pneumoniae, ATCC13883; K. pneumoniae (13883); overnight incubation (18 hours); read-out: MIC50 K. Pnuemnoiae
[5] = test system: E. Coli ATCC 25922; assay: as above; assay type: cell-based; conditions: Escherichia coli, ATCC25922; E. coli (25922); overnight incubation (18 hours); read-out: MIC50 E. coli
[6] = Cytotoxicity colorimetric (tetrazolium) assay; assay type: cell-based, human; conditions: human, HepG2 cells (HB-8065), HepG2 cells; one hour with compound in serum-free media
Method: (§1) Cytotoxicity of the compounds was evaluated in a colorimetric assay using a transformed human liver cell line (HepG2, HB-8065) and an embryonic mouse cell line (NIH/3T3 cells, CRL-1658). This assay measures the bioreduction of a novel tetrazolium compound to a soluble formazan product by viable cells. HepG2 cells were seeded in 96 well plates at 2×10^4 cells/well in MEM medium with 10% fetal bovine serum (FBS) 24 hours prior to use. NIH/3T3 cells were seeded in 96 well plates at 2×10^4 cells/well in DMEM medium with 10% bovine calf serum (BCS) 24 hours prior to use. Cell monolayers were rinsed in serum-free media and incubated for one hour with compounds in serum-free media. After incubation, the media is replaced with serum supplemented media and live cells were measured using the Cell Titer 96 Aqueous […] Assay kit (Promega, Madison, Wis.). EC50 values were determined using a four parameter logistic equation: Y=Bottom+(Top-Bottom)/(1+10̂((LogEC50−X)*HillSlope)).
(§2) Actual results from a representative cytotoxicity assay are shown below in Table 2. Data is expressed as EC50 in μg/mL.

[7] = Cytotoxicity colorimetric (tetrazolium) assay; assay type: cell-based, mouse; conditions: mouse, NIH/3T3 cells (CRL-1658), NIH/3T3 cells; one hour with compound in serum-free media
Method: as §1, §2

Row | Structure (SMILES) | MIC50 [1] [µg/mL] | MIC50 [2] [µg/mL] | MIC50 [3] [µg/mL] | MIC50 [4] [µg/mL] | MIC50 [5] [µg/mL] | EC50 at 1 h [6] [µg/mL] | EC50 at 1 h [7] [µg/mL]
1 | N=C(N)NCC(CNC(=N)N)c1cc(Br)cc(C#Cc2cccc(C#Cc3cc(Br)cc(C(CNC(=N)N)CNC(=N)N)c3)c2)c1 (stereo not drawn) [Compound 191] | 3.13 (≈ 4.18 µM) | 6.25 (≈ 8.35 µM) | 1.56 (≈ 2.08 µM) | 6.25 (≈ 8.35 µM) | 3.13 (≈ 4.18 µM) | 70.3 (≈ 93.9 µM) | 17.4 (≈ 23.3 µM)
2 | N=C(N)NCCc1cccc(-c2cc(-c3cccc(-c4cc(-c5cccc(CCNC(=N)N)c5)on4)c3)no2)c1 [Compound 129] | 3.13 (≈ 5.85 µM) | 25 (≈ 46.8 µM) | 0.78 (≈ 1.46 µM) | 12.5 to 25 (≈ 23.4 to 46.8 µM) | 25 (≈ 46.8 µM) | 57 (≈ 107 µM) | 35.8 (≈ 66.9 µM)
3 | NCCc1cc(CCN)cc(-c2csc(-c3cccc(-c4nc(-c5cc(CCN)cc(CCN)c5)cs4)c3)n2)c1 [Compound 135] | > 50 | 25 (≈ 44 µM) | 6.25 (≈ 11 µM) | > 50 | 50 (≈ 87.9 µM) | 134 (≈ 236 µM) | 34.5 (≈ 60.6 µM)
4 | NCCc1cccc(-c2cc(-c3cccc(-c4cc(-c5cccc(CCN)c5)on4)c3)no2)c1 [Compound 128] | 1.56 (≈ 3.46 µM) | 25 (≈ 55.5 µM) | 1.56 (≈ 3.46 µM) | 25 (≈ 55.5 µM) | 12.5 (≈ 27.7 µM) | 47 (≈ 104 µM) | 22.3 (≈ 49.5 µM)
5 | N=C(N)NCCc1cc(C#Cc2cccc(C#Cc3cc(CCNC(=N)N)cc(CCNC(=N)N)c3)c2)cc(CCNC(=N)N)c1 [Compound 189] | 6.25 (≈ 10.1 µM) | 6.25 (≈ 10.1 µM) | 3.9 to 7.8 (≈ 6.3 to 12.6 µM) | 1.56 (≈ 2.52 µM) | 1.56 (≈ 2.52 µM) | 256 (≈ 413 µM) | 131 (≈ 212 µM)
6 | NCCc1ccc(C#Cc2cccc(C#Cc3ccc(CCN)c(CCN)c3)c2)cc1CCN [Compound 194] | 6.25 (≈ 13.9 µM) | 12.5 (≈ 27.7 µM) | 1.56 (≈ 3.46 µM) | > 50 | 12.5 (≈ 27.7 µM) | 192 (≈ 426 µM) | 154 (≈ 342 µM)
7 | NCCc1cc(C#Cc2cc(C#Cc3cc(CCN)cc(CCN)c3)c(F)cc2F)cc(CCN)c1 [Compound 192] | 12.5 (≈ 25.7 µM) | 50 (≈ 103 µM) | 3.13 (≈ 6.43 µM) | > 50 | 12.5 (≈ 25.7 µM) | 554 (≈ 1140 µM) | 542 (≈ 1110 µM)
8 | O=C(c1cc(C(=O)N2CCNCC2)cc(-c2ccc3sc4ccc(-c5cc(C(=O)N6CCNCC6)cc(C(=O)N6CCNCC6)c5)cc4c3c2)c1)N1CCNCC1 [Compound 170] | > 100 | > 100 | > 100 | > 100 | > 100 | > 1000 | 436 (≈ 555 µM)
9 | N=C(N)NCCc1cccc(-c2coc(-c3cccc(-c4nc(-c5cccc(CCNC(=N)N)c5)co4)c3)n2)c1 [Compound 134] | 12.5 (≈ 23.4 µM) | 25 (≈ 46.8 µM) | 0.78 (≈ 1.46 µM) | 50 (≈ 93.5 µM) | 12.5 (≈ 23.4 µM) | 70.9 (≈ 133 µM) | 33.4 (≈ 62.5 µM)
10 | NCCc1cc(CCN)cc(-c2csc(-c3cccc(-c4nccs4)c3)n2)c1 [Compound 136] | 50 (≈ 123 µM) | 50 (≈ 123 µM) | 25 (≈ 61.5 µM) | 50 (≈ 123 µM) | > 50 | 4.12 (≈ 10.1 µM) | 250 (≈ 615 µM)
11 | NCCc1cccc(-c2coc(-c3cccc(-c4ncco4)c3)n2)c1 [Compound 133] | 25 (≈ 75.4 µM) | > 50 | 50 (≈ 151 µM) | > 50 | > 50 | 130 (≈ 392 µM) | 70.2 (≈ 212 µM)
12 | N=C(N)NCCc1cc(CCNC(=N)N)cc(-c2csc(-c3cccc(-c4nc(-c5cc(CCNC(=N)N)cc(CCNC(=N)N)c5)cs4)c3)n2)c1 [Compound 137] | 12.5 (≈ 17 µM) | 12.5 (≈ 17 µM) | 3.13 (≈ 4.25 µM) | > 50 | 12.5 (≈ 17 µM) | 55.6 (≈ 75.4 µM) | 26.6 (≈ 36.1 µM)
13 | N=C(N)NCCc1ccc(C#Cc2cccc(C#Cc3ccc(CCNC(=N)N)c(CCNC(=N)N)c3)c2)cc1CCNC(=N)N [Compound 195] | 1.56 (≈ 2.52 µM) | 12.5 (≈ 20.2 µM) | 0.78 (≈ 1.26 µM) | 6.25 (≈ 10.1 µM) | 3.13 (≈ 5.06 µM) | 163 (≈ 263 µM) | 95.8 (≈ 155 µM)
14 | N=C(N)NCCc1cc(C#Cc2ccc(C#Cc3cc(CCNC(=N)N)cc(CCNC(=N)N)c3)cc2)cc(CCNC(=N)N)c1 [Compound 199] | 12.5 (≈ 20.2 µM) | 12.5 (≈ 20.2 µM) | 0.78 (≈ 1.26 µM) | 1.56 (≈ 2.52 µM) | 1.56 (≈ 2.52 µM) | 135 (≈ 218 µM) | 116 (≈ 188 µM)
15 | N=C(N)NCCc1cc(C#Cc2cc(C#Cc3cc(CCNC(=N)N)cc(CCNC(=N)N)c3)c(F)cc2F)cc(CCNC(=N)N)c1 [Compound 193] | 1.56 (≈ 2.38 µM) | 6.25 (≈ 9.55 µM) | 0.39 (≈ 0.596 µM) | 1.56 (≈ 2.38 µM) | 1.56 (≈ 2.38 µM) | 178 (≈ 272 µM) | 62.4 (≈ 95.3 µM)
16 | N=C(N)NCCCc1cccc(-c2ccc3c4ccc(-c5cccc(CCCNC(=N)N)c5)cc4n(CCCNC(=N)N)c3c2)c1 [Compound 158] | 6.25 (≈ 10.1 µM) | 25 (≈ 40.5 µM) | 1.56 (≈ 2.53 µM) | 3.13 (≈ 5.07 µM) | 3.13 (≈ 5.07 µM) | 100 (≈ 162 µM) | 131 (≈ 212 µM)
17 | NCCc1cc(C#Cc2ccc(C#Cc3cc(CCN)cc(CCN)c3)cc2)cc(CCN)c1 [Compound 198] | 50 (≈ 111 µM) | 50 (≈ 111 µM) | 25 (≈ 55.5 µM) | 50 (≈ 111 µM) | 50 (≈ 111 µM) | 185 (≈ 411 µM) | 282 (≈ 626 µM)
18 | N=C(N)NCCc1cc(CCNC(=N)N)cc(-c2cccc(-c3cc(CCNC(=N)N)cc(CCNC(=N)N)c3)c2)c1 [Compound 116] | 25 (≈ 43.8 µM) | 25 (≈ 43.8 µM) | 6.25 (≈ 11 µM) | 25 (≈ 43.8 µM) | 6.25 (≈ 11 µM) | 974 (≈ 1710 µM) | 676 (≈ 1180 µM)

Further lines, with some results ahead:

Row | MIC50 [1] [µg/mL] | MIC50 [2] [µg/mL] | MIC50 [3] [µg/mL] | MIC50 [4] [µg/mL] | MIC50 [5] [µg/mL] | Structure (SMILES) | EC50 at 1 h [6] [µg/mL] | EC50 at 1 h [7] [µg/mL]
19 | 25 (≈ 39.9 µM) | 25 (≈ 39.9 µM) | 6.25 (≈ 9.97 µM) | > 50 | 50 (≈ 79.8 µM) | NCCCOc1cc(OCCCN)cc(-c2ccc(C(=O)c3ccc(-c4cc(OCCCN)cc(OCCCN)c4)cc3)cc2)c1 [Compound 165] | 355 (≈ 566 µM) | 357 (≈ 570 µM)
20 | 6.25 (≈ 8.9 µM) | 12.5 (≈ 17.8 µM) | 1.56 (≈ 2.22 µM) | 25 (≈ 35.6 µM) | 6.25 (≈ 8.9 µM) | NCCCOc1cc(OCCCN)cc(-c2ccc3sc4ccc(-c5cc(OCCCN)c(OCCCN)c(OCCCN)c5)cc4c3c2)c1 [Compound 182] | 173 (≈ 246 µM) | 78.2 (≈ 111 µM)
21 | 6.25 (≈ 10.8 µM) | 12.5 (≈ 21.6 µM) | 0.39 (≈ 0.674 µM) | 6.25 (≈ 10.8 µM) | 1.56 (≈ 2.7 µM) | NCCCn1c2cc(-c3cccc(N(CCN)CCN)c3)ccc2c2ccc(-c3cccc(N(CCN)CCN)c3)cc21 [Compound 160] | 853 (≈ 1470 µM) | 451 (≈ 779 µM)
22 | 0.78 (≈ 0.979 µM) | 6.25 (≈ 7.84 µM) | 0.049 (≈ 0.0615 µM) | 0.78 (≈ 0.979 µM) | 0.78 (≈ 0.979 µM) | N=C(N)NCCCOc1cc(OCCCNC(=N)N)cc(-c2ccc3sc4ccc(-c5cc(OCCCNC(=N)N)cc(OCCCNC(=N)N)c5)cc4c3c2)c1 [Compound 172] | 35.7 (≈ 44.8 µM) | 41.4 (≈ 51.9 µM)
23 | > 50 | 25 (≈ 38.3 µM) | 1.56 (≈ 2.39 µM) | > 50 | > 50 | NCCCOc1cc(OCCCN)cc(-c2ccc3c(c2)C(=O)c2cccc(-c4cc(OCCCN)cc(OCCCN)c4)c2CC3)c1 [Compound 155] | 330 (≈ 505 µM) | 177 (≈ 271 µM)
24 | > 50 | > 50 | 25 (≈ 62.1 µM) | 50 (≈ 124 µM) | 25 (≈ 62.1 µM) | NCCc1cc(CCN)cc(-c2cccc(-c3cc(CCN)cc(CCN)c3)c2)c1 [Compound 115] | > 1160 | 1130 (≈ 2810 µM)
25 | 1.56 (≈ 2.4 µM) | 6.25 (≈ 9.63 µM) | 0.39 (≈ 0.601 µM) | 6.25 (≈ 9.63 µM) | 3.13 (≈ 4.82 µM) | NCCCOc1cc(OCCCN)cc(-c2ccc(C(F)(F)c3ccc(-c4cc(OCCCN)cc(OCCCN)c4)cc3)cc2)c1 [Compound 166] | 137 (≈ 211 µM) | 84 (≈ 129 µM)
26 | 6.25 (≈ 10.4 µM) | 6.25 (≈ 10.4 µM) | 0.195 (≈ 0.326 µM) | 6.25 (≈ 10.4 µM) | 3.13 (≈ 5.23 µM) | NCCCOc1cc(OCCCN)cc(-c2cccc(-c3cccc(-c4cc(OCCCN)cc(OCCCN)c4)c3)c2)c1 [Compound 144] | 448 (≈ 748 µM) | 320 (≈ 534 µM)
27 | 12.5 (≈ 30.7 µM) | 100 (≈ 246 µM) | 1.56 (≈ 3.84 µM) | 12.5 (≈ 30.7 µM) | 12.5 (≈ 30.7 µM) | NCCCn1c2cc(-c3cccc(N)c3)ccc2c2ccc(-c3cccc(N)c3)cc21 [Compound 159] | 64.7 (≈ 159 µM) | 45.7 (≈ 112 µM)
